Patent US10105357B2, “Indication of antibiotic drugs for preparation of cancer inhibition pharmaceutical composition” (LAUNX BIOMEDICAL CO., LTD., priority 2014, dated 2018)
Where two headings read alike, the source gives them in different places.

Legend:
T24 = test: Cell viability analysis, bladder cancer T24; format: cell-based, human; settings: Homo sapiens, T-24, 72 h, read-out: The results of antibiotic drug inhibiting cancer cell lines (cell viability analysis), T24
BxPC-3 = test: Cell viability analysis, pancreatic cancer BxPC-3; format: cell-based, human; settings: Homo sapiens, BXPC-3, 72 h, read-out: The results of antibiotic drug inhibiting cancer cell lines (cell viability analysis), BxPC-3
cancer cell lines = test: Cell viability analysis (WST-1) on cancer cell lines; format: cell-based, human; settings: drug 10 μM, 72 hours, WST-1; Table 3
[1] = system: AGS (Gastric Adenocarcinoma); test: Cell viability analysis, gastric cancer AGS; format: cell-based, human; settings: Homo sapiens, 72 h
[2] = system: SAS (Tongue squamous cell carcinoma); test: Cell viability analysis, tongue cancer SAS; format: cell-based, human; settings: Homo sapiens, 72 h, read-out: The results of antibiotic drug inhibiting cancer cell lines (cell viability analysis), SAS
[3] = system: HCT116 (p53+) (Colorectal Carcinoma)
[4] = system: MCF7 (Mammary Gland, Adenocarcinoma); test: Cell viability analysis, breast cancer MCF7; format: cell-based, human; settings: Homo sapiens, MCF7, 72 h
[5] = system: TSGH-8301 (Urinary Bladder Carcinoma); test: Cell viability analysis, bladder cancer TSGH-8301; format: cell-based, human; settings: Homo sapiens, 72 h
[6] = system: 786-O (Renal adenocarcinoma); test: Cell viability analysis, renal cancer 786-O; format: cell-based, human; settings: Homo sapiens, 786-0, 72 h, read-out: The results of antibiotic drug inhibiting cancer cell lines (cell viability analysis), 786-O
[7] = system: MDA-MB-231 (Mammary Gland, Adenocarcinoma); test: Cell viability analysis, breast cancer MDA-MB-231; format: cell-based, human; settings: Homo sapiens, MDA-MB-231, 72 h, read-out: The results of antibiotic drug inhibiting cancer cell lines (cell viability analysis), MDA-MB231
[8] = system: Hep3B (hepatocellular carcinoma); test: Cell viability analysis, hepatic cancer Hep3B; format: cell-based, human; settings: Homo sapiens, Hep3B, 72 h, read-out: The results of antibiotic drug inhibiting cancer cell lines (cell viability analysis), Hep3B
[9] = system: HI650 (Lung Adenocarcinoma); test: Cell viability analysis, lung cancer HI650; format: cell-based, human; settings: Homo sapiens, NCI-H1650, 72 h
[10] = system: PC3 (p53−) (Prostate Adenocarcinoma); test: Cell viability analysis, prostate cancer PC3; format: cell-based, human; settings: Homo sapiens, 72 h
U-2OS = test: Cell viability analysis, osteosarcoma U-2OS; format: cell-based, human; settings: Homo sapiens, U2OS, 72 h, read-out: The results of antibiotic drug inhibiting cancer cell lines (cell viability analysis), U2OS
[11] = system: BCC (basal cell carcinoma); test: Cell viability analysis, skin cancer BCC; format: cell-based, human; settings: Homo sapiens, 72 h, read-out: The results of antibiotic drug inhibiting cancer cell lines (cell viability analysis), BCC
TOV-21G = test: Cell viability analysis, ovarian cancer TOV-21G; format: cell-based, human; settings: Homo sapiens, TOV21G, 72 h, read-out: The results of antibiotic drug inhibiting cancer cell lines (cell viability analysis), TOV-21G
[12] = system: HepG2 (Hepatocellular Carcinoma); test: Cell viability analysis, hepatic cancer HepG2; format: cell-based, human; settings: Homo sapiens, HepG2, 72 h
NIH: OVCAR-3 = test: Cell viability analysis, ovarian cancer NIH: OVCAR-3; format: cell-based, human; settings: Homo sapiens, OVCAR-3, 72 h, read-out: The results of antibiotic drug inhibiting cancer cell lines (cell viability analysis), NIH-OVCAR-3
[13] = system: HL-60 (Acute Promyelocytic Leukemia); test: Cell viability analysis, leukemia HL-60; format: cell-based, human; settings: Homo sapiens, HL-60, 72 h, read-out: cell viability (survival rate), HL-60, drug 10 μM, 72 hours, WST-1, OD450 nm
[14] = system: LoVo (Colorectal Adenocarcinoma); test: Cell viability analysis, colon cancer LoVo; format: cell-based, human; settings: Homo sapiens, LoVo, 72 h
[15] = system: HeLa (Cervix Adenocarcinoma); test: Cell viability analysis, cervical cancer HeLa; format: cell-based, human; settings: Homo sapiens, HeLa, 72 h
[16] = system: C-33A (Cervical carcinoma); test: Cell viability analysis, cervical cancer C-33A; format: cell-based, human; settings: Homo sapiens, C-33-A, 72 h, read-out: The results of antibiotic drug inhibiting cancer cell lines (cell viability analysis), C-33A
[17] = system: MKN-45 (Gastric Adenocarcinoma); test: Cell viability analysis, gastric cancer MKN-45; format: cell-based, human; settings: Homo sapiens, MKN-45, 72 h
[18] = system: A549 (Lung Adenocarcinoma); test: Cell viability analysis, lung cancer A549; format: cell-based, human; settings: Homo sapiens, A549, 72 h
[19] = system: A375 (Amelanotic Melanoma); test: Cell viability analysis, skin cancer A375; format: cell-based, human; settings: Homo sapiens, A-375, 72 h
AsPC-1 = test: Cell viability analysis, pancreatic cancer AsPC-1; format: cell-based, human; settings: Homo sapiens, ASPC1, 72 h, read-out: The results of antibiotic drug inhibiting cancer cell lines (cell viability analysis), AsPC-1
[20] = read-out: The results of antibiotic drug inhibiting cancer cell lines (cell viability analysis), AGS, repeated experiment
[21] = read-out: cell viability (survival rate), AGS, drug 10 μM, 72 hours, WST-1, OD450 nm
[22] = read-out: The results of antibiotic drug inhibiting cancer cell lines (cell viability analysis), MCF-7, MCF-7, repeated experiment
[23] = read-out: cell viability (survival rate), MCF7, drug 10 μM, 72 hours, WST-1, OD450 nm
[24] = read-out: The results of antibiotic drug inhibiting cancer cell lines (cell viability analysis), TSGH-8301, TSGH-8301, repeated experiment
[25] = read-out: cell viability (survival rate), TSGH, drug 10 μM, 72 hours, WST-1, OD450 nm
[26] = read-out: The results of antibiotic drug inhibiting cancer cell lines (cell viability analysis), H1650, H1650, repeated experiment
[27] = read-out: cell viability (survival rate), H1650, drug 10 μM, 72 hours, WST-1, OD450 nm
[28] = read-out: The results of antibiotic drug inhibiting cancer cell lines (cell viability analysis), PC-3, PC-3, repeated experiment
[29] = read-out: cell viability (survival rate), PC3, drug 10 μM, 72 hours, WST-1, OD450 nm
[30] = read-out: The results of antibiotic drug inhibiting cancer cell lines (cell viability analysis), HepG2, HepG2, repeated experiment
[31] = read-out: cell viability (survival rate), HepG2, drug 10 μM, 72 hours, WST-1, OD450 nm
[32] = read-out: The results of antibiotic drug inhibiting cancer cell lines (cell viability analysis), LoVo, repeated experiment
[33] = read-out: cell viability (survival rate), LoVo, drug 10 μM, 72 hours, WST-1, OD450 nm
[34] = read-out: The results of antibiotic drug inhibiting cancer cell lines (cell viability analysis), HeLa, repeated experiment
[35] = read-out: cell viability (survival rate), HeLa, drug 10 μM, 72 hours, WST-1, OD450 nm
[36] = read-out: The results of antibiotic drug inhibiting cancer cell lines (cell viability analysis), MKN-45, MKN-45, repeated experiment
[37] = read-out: cell viability (survival rate), MKN-45, drug 10 μM, 72 hours, WST-1, OD450 nm
[38] = read-out: The results of antibiotic drug inhibiting cancer cell lines (cell viability analysis), A549, A549, repeated experiment
[39] = read-out: cell viability (survival rate), A549, drug 10 μM, 72 hours, WST-1, OD450 nm
[40] = read-out: The results of antibiotic drug inhibiting cancer cell lines (cell viability analysis), A375, A375, repeated experiment
[41] = read-out: cell viability (survival rate), A375, drug 10 μM, 72 hours, WST-1, OD450 nm

Structure (SMILES) | viability at 10 µM (T24) [%] | viability at 10 µM (BxPC-3) [%] | inhibition effect on different cancer cell lines (cancer cell lines) | viability at 10 µM [1, 20] [%] | viability at 10 µM [1, 21] [%] | viability [3] [%] | viability at 10 µM [4, 22] [%] | viability at 10 µM [4, 23] [%] | viability at 10 µM [5, 24] [%] | viability at 10 µM [5, 25] [%] | viability at 10 µM [6] [%] | viability at 10 µM [7] [%] | viability at 10 µM [8] [%] | viability at 10 µM [9, 26] [%] | viability at 10 µM [9, 27] [%] | viability at 10 µM [10, 28] [%] | viability at 10 µM [10, 29] [%] | viability at 10 µM (U-2OS) [%] | viability at 10 µM [11] [%] | viability at 10 µM (TOV-21G) [%] | further results
CC1(C)S[C@@H]2[C@H](NC(=O)Cc3ccccc3)C(=O)N2[C@H]1C(=O)O [Benzylpenicillin sodium] | 108 | 95.3 | significant inhibition effect | 110 | 54.8 | 94 | 86.9 | 31.3 | 131 | 39.6 | 93.2 | 94.7 | 113 | 121 | 57.1 | 106 | 36.1 | 71.5 | 97.7 | 112 | viability at 10 µM [2]: 67%; viability at 10 µM [12, 30]: 108%; viability at 10 µM [12, 31]: 86.4%; viability at 10 µM (NIH: OVCAR-3): 110%; viability at 10 µM [13]: 86.7%; viability at 10 µM [14, 32]: 78.3%; viability at 10 µM [14, 33]: 62.8%; viability at 10 µM [15, 34]: 107%; viability at 10 µM [15, 35]: 57.1%; viability at 10 µM [16]: 110%; viability at 10 µM [17, 36]: 124%; viability at 10 µM [17, 37]: 43.1%; viability at 10 µM [18, 38]: 97.2%; viability at 10 µM [18, 39]: 36.4%; viability at 10 µM [19, 40]: 113%; viability at 10 µM [19, 41]: 51.7%
Cc1noc(NS(=O)(=O)c2ccc(N)cc2)c1C [Sulfisoxazole] | 90.7 | 67.1 | significant inhibition effect | 108 | 88.7 | 97.9 | 106 | 46.1 | 105 | 93 | 93.3 | 104 | 110 | 75.9 | 73.9 | 111 | 36.1 | 88.6 | 102 | 84.5 | viability at 10 µM (AsPC-1): 80.1%; viability at 10 µM [12, 30]: 122%; viability at 10 µM [12, 31]: 108%; viability at 10 µM (NIH: OVCAR-3): 108%; viability at 10 µM [13]: 95.2%; viability at 10 µM [14, 32]: 112%; viability at 10 µM [14, 33]: 68.8%; viability at 10 µM [15, 34]: 120%; viability at 10 µM [15, 35]: 78.9%; viability at 10 µM [16]: 116%; viability at 10 µM [17, 36]: 105%; viability at 10 µM [17, 37]: 48.4%; viability at 10 µM [18, 38]: 105%; viability at 10 µM [18, 39]: 39.4%; viability at 10 µM [19, 40]: 107%; viability at 10 µM [19, 41]: 65.5%
